{"source": "patent US20060057109A1", "about": "(priority 2002, published 2006)", "key": {"[1]": {"tested_on": "caspase 8 and caspase 9 in CPA-treated 9L/P450 cells", "assay": "Caspase 8 and caspase 9 activity in extracts of CPA-treated cells", "type": "cell-based, rat", "details": "IAP expressed by retroviral transduction, cells treated with 1 mM CPA", "quoted_text": "9L/P450 cells were infected with retrovirus encoding the IAPs p35 or Survivin. […] Shown in FIG. 1B are the caspase 8 and caspase 9 activities of the individual cell lines (mean+/−half the range for n=2 separate experiments).\nCaspase Activity Measurements: Caspase activities were assayed as described previously (Schwartz and Waxman, Mol Pharmacol. 60:1268-1279. (2001)). […] Floating and attached cells were collected, pooled, dissolved in lysis buffer (10 mM Hepes buffer (pH 7.4) containing 2 mM EDTA, 0.1% CHAPS detergent, 5 mM DTT, 350 ng/ml PMSF, 10 ng/ml pepstatin A, 10 ng/ml aprotinin, and 20 ng/ml leupeptin) and then subjected to three freeze-thaw cycles. Lysates were spun and the supernatant (cell extract) was assayed for caspase 3, 8 and 9 activities by incubation with caspase form-selective substrates: Ac-DEVD-AMC (Biomol; cat # P-411) for caspase 3 (Talanian et al., J Biol. Chem. 272:9677-9682 (1997); Thomberry et al., J Biol. Chem. 272:17907-17911 (1997)), LETD-AFC (BioRad; cat# 170-3186) for caspase 8 and Ac-LEHD-AFC (BioRad; cat# 170-3190) for caspase 9."}, "[2]": {"tested_on": "9L/P450/p35-9 cells", "quoted_text": "Cells were then cultured for up to 17 days following the initial drug treatment. […] Cells remaining on the plates at each indicated time point were stained with crystal violet. Data shown are mean+/−half the range for A595 values n=2 samples at each time point.\nGrowth Inhibition Assay: 9L/P450 and 9L/P450-derived cells lines were plated at 1.5×10^5 cells per well in 12 well dishes in 1.5 ml media unless indicated otherwise. […] Cells remaining on the plate at the indicated times were washed twice with cold PBS and then stained with crystal violet solution, as described previously (Schwartz and Waxman, Mol Pharmacol. 60:1268-1279. (2001)). The stain was eluted from the cells and the absorbance read at 595 nm to determine the relative protein content of each sample (Jounaidi et al., Cancer Res. 58:4391-4401 (1998))."}, "[3]": {"details": "human, in vivo; cited from earlier work"}, "[4]": {"tested_on": "9L/P450 cells"}, "[5]": {"tested_on": "9L/P450 cells", "details": "1 × 8 hr 1 mM CPA"}, "[6]": {"tested_on": "9L/P450/p35-9 cells", "assay": "Colony formation assay after CPA treatment", "type": "cell-based, rat", "details": "1 × 8 hr 1 mM CPA", "text": "Relative colony formation activities are shown in parenthesis."}, "[7]": {"tested_on": "9L/LacZ bystander cells", "assay": "Bystander cytotoxicity, colony formation assay", "type": "cell-based, rat", "procedure": "The cytotoxicity conferred by 9L/P450 and 9L/P450/p35-9 cells on 9L/LacZ bystander cells was assayed using one of two protocols. […] Following this drug treatment cell survival was determined for each of the three cell lines (9L/P450, 9L/P450/p35-9 and 9L/LacZ) using a colony formation assay. In the experiment shown in FIGS. 6A and 6B (protocol 1) the 9L/LacZ bystander cells were plated on top of the 9L/P450 or 9L/P450/p35-9 cells, enabling the two cell populations to be in direct cell-cell contact. […]\nBystander Experiments. […] The cells were then grown in drug-free media for an additional 16 hr (i.e., 24 hr from the start of the second drug treatment), at which point the cells were trypsinized, collected, counted and replated at various densities in 6 well plates to allow for the growth of individual colonies, as follows: Drug-free control cells were replated in duplicate at 100, 150 and 250 cells/well. […] LacZ-positive colonies containing≧50 cells were counted. Cells were then re-stained with crystal violet and the total number of colonies was determined. The number of 9L/P450 or 9L/P450/p35-9 colonies on each plate was then calculated by subtracting number of the Lac Z-positive colonies from each sample. The colony efficiency (number of colonies/number of cells seeded) was then calculated for each treatment group. […]"}, "[8]": {"tested_on": "9L/P450 cells", "remark": "listed apart in the source"}, "[9]": {"details": "three 8 hr treatments with 1 mM CPA"}}, "note": "Where two headings read alike, the source gives them in different places.", "data": [{"compound": "hIAP2: human IAP (inhibitor of apoptosis), myc-tagged cDNA, expressed by retroviral transduction", "values": [{"measurement": "inhibition of caspase activity", "setting": "[1]", "value": "less effective caspase inhibition"}]}, {"compound": "O=P1(N(CCCl)CCCl)NCCCO1", "note": "(stereo not shown) [CPA, cyclophosphamide]", "values": [{"measurement": "time to death of cells", "setting": "[2]; 1 mM CPA continuously", "value": 8, "unit": "days"}, {"measurement": "cell killing", "setting": "[2]; single 8 hr CPA treatment", "value": "not sufficient to kill"}, {"measurement": "day by which all cells died", "setting": "[2]; [9]", "value": "≤ 17", "unit": "days"}, {"measurement": "half-life", "setting": "[3]", "value": 8, "unit": "h"}, {"measurement": "time to death of cells", "setting": "[4]; 1 mM CPA continuously", "value": "3 to 4", "unit": "days"}, {"measurement": "cellular response to CPA in the absence of p35", "setting": "[4]; 1 mM CPA for 72 hr", "value": "cytotoxic response"}, {"measurement": "cell survival", "setting": "[4]; 1 mM CPA for 72 hr, without BSO", "value": 62, "unit": "%"}, {"measurement": "cell killing", "setting": "[4]; single 8 hr CPA treatment", "value": "not sufficient to kill"}, {"measurement": "day by which all cells died", "setting": "[4]; [9]", "value": "6 to 9", "unit": "days"}, {"measurement": "Relative colony formation activity (in parenthesis)", "setting": "[5]; No Drug = 100", "value": "1.1 ± 0.5"}, {"measurement": "Colonies per 10,000 cells", "setting": "[5]; mean ± SD n=3", "value": 77}, {"measurement": "Relative colony formation activity (in parenthesis)", "setting": "[6]; No Drug = 100", "value": "2.9 ± 0.9"}, {"measurement": "Colonies per 10,000 cells", "setting": "[6]; mean ± SD n=3", "value": "150 ± 49"}, {"measurement": "bystander cell killing", "setting": "[7]; co-cultured with 9L/P450/p35-9 cells across a permeable membrane, second 8 hr CPA treatment", "value": "70-80%"}, {"measurement": "bystander cell killing", "setting": "[7]; co-cultured with CPA-pretreated 9L/P450 cells across a permeable membrane, second CPA treatment", "value": "little or no bystander cell killing"}]}, {"compound": "CCCCS(=N)(=O)CCC(N)C(=O)O", "note": "(stereo not shown) [BSO, buthionine sulfoximine]", "values": [{"measurement": "decrease in the cell's capacity to produce and release 4-OH-CPA into the culture media", "setting": "[8]", "value": 86, "unit": "%"}, {"measurement": "effect of BSO pretreatment on cell growth", "setting": "[4]", "value": "no effect on cell growth"}, {"measurement": "cell survival", "setting": "[4]; BSO pretreatment (50 μM for 24 hr), then 1 mM CPA for 72 hr", "value": 13, "unit": "%"}]}]}
